This is an account of results in ChEMBL document CHEMBL1649292, “In vivo investigations of selected diamidine compounds against Trypanosoma evansi using a mouse model” (2009).

SMILES strings stand for the structures. The source made the active and inactive calls. The rule behind the calls is not given here.

For test [1], the system named is Trypanosoma evansi. As to the kind of experiment: Antimicrobial activity against Trypanosoma evansi STIB 806K infected in NMRI mouse assessed as host survival days at 2 mg/kg, ip administered 3 to 6 days after infection for 4 consecutive days. Format: functional. The following applies: route intraperitoneal.
Test [2] deals with Trypanosoma evansi. As to the kind of experiment: Antimicrobial activity against Trypanosoma evansi STIB 806K infected in NMRI mouse assessed as complete cure from microbial infection at 2 mg/kg, ip administered 3 to 6 days after infection for 4 consecutive days. Format: functional, organism-based. On the set-up: dose 2 mg/kg.
The subject of test [3] is Trypanosoma evansi. Put plainly: Antimicrobial activity against Trypanosoma evansi STIB 806K infected in NMRI mouse assessed as host survival days at 0.25 mg/kg, ip administered 3 to 6 days after infection for 4 consecutive days. The class given is functional. The following applies: route intraperitoneal.
In test [4] the test system is Trypanosoma evansi. As to the kind of experiment: Antimicrobial activity against Trypanosoma evansi STIB 806K infected in NMRI mouse assessed as complete cure from microbial infection at 1 mg/kg, ip administered 3 to 6 days after infection for 4 consecutive days. On the set-up: dose 1 mg/kg. Format: functional, organism-based.
Test [5] deals with Trypanosoma evansi. Put plainly: Antimicrobial activity against Trypanosoma evansi STIB 806K infected in NMRI mouse assessed as host survival days at 0.5 mg/kg, ip administered 3 to 6 days after infection for 4 consecutive days. Format: functional. The following applies: route intraperitoneal.
The subject of test [6] is Trypanosoma evansi. Put plainly: Antimicrobial activity against Trypanosoma evansi STIB 806K infected in NMRI mouse assessed as host survival days at 1 mg/kg, ip administered 3 to 6 days after infection for 4 consecutive days. The class given is functional. The following applies: route intraperitoneal.
For test [7], the system named is Trypanosoma evansi. Put plainly: Antimicrobial activity against Trypanosoma evansi STIB 806K infected in NMRI mouse assessed as host survival days at 0.03125 mg/kg, ip administered 3 to 6 days after infection for 4 consecutive days. The class given is functional. The following applies: route intraperitoneal.
The subject of test [8] is Trypanosoma evansi. As to the kind of experiment: Antimicrobial activity against Trypanosoma evansi STIB 806K infected in NMRI mouse assessed as complete cure from microbial infection at 0.125 mg/kg, ip administered 3 to 6 days after infection for 4 consecutive days. The class given is functional, organism-based. On the set-up: dose 0.125 mg/kg.
Test [9] relates to Trypanosoma evansi. Put plainly: Antimicrobial activity against Trypanosoma evansi STIB 806K infected in NMRI mouse assessed as host survival days at 0.0625 mg/kg, ip administered 3 to 6 days after infection for 4 consecutive days. The class given is functional. The following applies: route intraperitoneal.
Test [10] has as its system Trypanosoma evansi. As to the kind of experiment: Antimicrobial activity against Trypanosoma evansi STIB 806K infected in NMRI mouse assessed as host survival days at 0.125 mg/kg, ip administered 3 to 6 days after infection for 4 consecutive days. The class given is functional. The following applies: route intraperitoneal.
For test [11], the system named is Trypanosoma evansi. As to the kind of experiment: Antimicrobial activity against Trypanosoma evansi STIB 806K infected in NMRI mouse assessed as complete cure from microbial infection at 0.0625 mg/kg, ip administered 3 to 6 days after infection for 4 consecutive days. The class given is functional, organism-based. On the set-up: dose 0.0625 mg/kg.
The test system of test [12] is Trypanosoma evansi. Put plainly: Antimicrobial activity against Trypanosoma evansi STIB 806K infected in NMRI mouse assessed as complete cure from microbial infection at 0.5 mg/kg, ip administered 3 to 6 days after infection for 4 consecutive days. Format: functional, organism-based. On the set-up: dose 0.5 mg/kg.
Test [13] relates to Trypanosoma evansi. As to the kind of experiment: Antimicrobial activity against Trypanosoma evansi STIB 806K infected in NMRI mouse assessed as complete cure from microbial infection at 0.25 mg/kg, ip administered 3 to 6 days after infection for 4 consecutive days. On the set-up: dose 0.25 mg/kg. Format: functional, organism-based.
Test [14] has as its system Trypanosoma evansi. Put plainly: Antimicrobial activity against Trypanosoma evansi STIB 806K infected in NMRI mouse assessed as host survival days at 0.2 mg/kg, ip administered 3 to 6 days after infection for 4 consecutive days. The following applies: route intraperitoneal. The class given is functional.
Test [15] concerns Trypanosoma evansi. As to the kind of experiment: Antimicrobial activity against Trypanosoma evansi STIB 806K infected in NMRI mouse assessed as complete cure from microbial infection at 0.2 mg/kg, ip administered 3 to 6 days after infection for 4 consecutive days. The class given is functional, organism-based. On the set-up: dose 0.2 mg/kg.
Test [16] concerns Trypanosoma evansi. Put plainly: Antimicrobial activity against Trypanosoma evansi STIB 806K infected in NMRI mouse assessed as complete cure from microbial infection at 0.20 mg/kg, ip administered 3 to 6 days after infection for 4 consecutive days. On the set-up: dose 0.2 mg/kg. Format: functional, organism-based.
The test system of test [17] is Trypanosoma evansi. As to the kind of experiment: Antimicrobial activity against Trypanosoma evansi STIB 806K infected in NMRI mouse assessed as host survival days at 0.20 mg/kg, ip administered 3 to 6 days after infection for 4 consecutive days. The class given is functional. The following applies: dose 0.2 mg/kg; route intraperitoneal.

With `c1cc(-c2cc3cc(C4=NCCN4)ccc3[nH]2)ccc1C1=NCCN1`, in test [1], the Survival stood at 39 days.
Take `N=C(N)c1ccc(-c2ccc(-c3nc4cc(C(=N)N)ccc4o3)o2)cc1`: the Survival in [1] was found to be 23 days. The result in [2] was inactive.
Take `Cc1cc(=N)c2ccc(Nc3cc(C)[n+](C)c(N)n3)cc2n1C.O=S(=O)([O-])O` [QUINAPYRAMINE SULFATE]: the results for the Survival in test [3], in [5] and in [6] were 41 days, 57 days and 60 days, respectively. Moreover, the outcome in [4] was Active.
Regarding `NCCS[As](SCCN)c1ccc(Nc2nc(N)nc(N)n2)cc1`, the Survival in [7] was 37 days; in test [9], 60 days; in test [10], 60 days. Also, the result in test [8] and in test [11] was Active.
Take `N=C(N)c1ccc(-c2csc(-c3ccc(C(=N)N)cc3)n2)cc1`: in test [1], the Survival was found to be 53 days.
As for `N=C(N)c1ccc(-c2ccc(-c3ccc(C(=N)N)o3)cn2)cc1`, in [1], the Survival was determined as 28 days.
Consider `N=C(N)c1ccc(-c2ccc(-c3ccc(C(=N)N)nc3)o2)nc1`, for which the Survival is 60 days in test [1], 46 days in [3], 23 days in test [10] and 60 days in test [5]. For the same compound, the outcome in test [2] and in test [12] was Active.
Regarding `N=C(N)c1ccc(-c2ccc(-c3ccc(C(=N)N)cc3O)o2)cc1`, the Survival in [1] was 60 days; in [3], 38 days; in test [10], 32 days; in test [5], 60 days. Also, the result in test [2] and in [12] was Active.
On to `N=C(N)c1ccc(-c2ccc(-c3ccc(C(=N)N)cc3F)o2)c(F)c1`, for which the Survival in test [5] came out at 43 days.
On to `N=C(N)c1ccc(-c2ccc(-c3ccc(C(=N)N)cn3)o2)cc1`, for which the Survival in [3] was 60 days; in test [10], 50 days; in test [5] it was 60 days. For the same compound, the outcome in [13] and in test [12] was Active.
Turning to `N=C(N)c1ccc(-c2cccc(-c3ccc(C(=N)N)cc3)n2)cc1`, in [5], the Survival came out at 16 days. For the same compound, the outcome in [12] was inactive.
As for `COc1cc(C(=N)N)ccc1-c1ccnc(-c2ccc(C(=N)N)cc2)n1`, the Survival in test [5] came out at 15 days. Further, in test [12], the outcome was inactive.
For the compound `Cc1ccc(C(=O)Nc2ccc(S(=O)(=O)O)c3cc(S(=O)(=O)O)cc(S(=O)(=O)O)c23)cc1NC(=O)c1cccc(NC(=O)Nc2cccc(C(=O)Nc3cc(C(=O)Nc4ccc(S(=O)(=O)O)c5cc(S(=O)(=O)O)cc(S(=O)(=O)O)c45)ccc3C)c2)c1` [SURAMIN], the Survival was determined as 11 days in [3], 51 days in test [5] and 60 days in [6]. Further, the result in [4] was Active. Also, in test [13], the outcome was inactive.
`N=C(N)c1ccc(-c2cccc(-c3nc4ccc(C(=N)N)cc4[nH]3)c2)nc1`: the Survival in test [1] came out at 18 days. The outcome in test [2] was inactive.
In the case of `CNC(=N)Nc1ccc(-c2ccc(-c3ccc(NC(=N)NC)cc3)cc2)cc1`, the Survival in test [5] amounted to 13 days. The result in [12] was inactive.
As to `COc1cc(C(=N)N)ccc1OCCCOc1ccc(C(=N)N)cc1OC`, the Survival in test [1] was determined as 29 days.
Turning to `Cc1cc(C(=N)N)cn2cc(-c3ccc(-c4ccc(C(=N)N)cc4)o3)nc12`, in test [1], the Survival amounted to 13 days. The outcome in [2] was inactive.
Turning to `N=C(N)c1ccc(-c2ccc(-c3cn4cc(C(=N)N)ccc4n3)cc2)cc1`, the Survival in [1] stood at 35 days; in test [14] it was 12 days. The result in [15] was inactive.
On to `N=C(N)c1ccc(-c2coc(-c3ccc(C(=N)N)cc3)c2)cc1`, for which the values for the Survival in test [1], in [3] and in [5] were 60 days, 41 days and 57 days, respectively. Besides, in [2], the result was Active.
As to `N=C(N)c1cccc(-c2ccc(-c3nc4cc(C(=N)N)ccc4[nH]3)cc2)c1`, in test [5], the Survival stood at 12 days. The outcome in test [12] was inactive.
As to `Cc1cc(C2=NCCN2)ccc1-c1cc2cc(C3=NCCN3)ccc2[nH]1`, in test [5], the Survival amounted to 7 days. The outcome in [12] was inactive.
Consider `Cn1c(-c2ccc(C(=N)N)nc2)ccc1-c1ccc(C(=N)N)nc1`, for which, in test [5], the Survival was determined as 34 days.
Take `Cc1cc(C(=N)N)ccc1-c1cc2cc(C(=N)N)ccc2[nH]1`: the Survival was found to be 60 days in test [1], 51 days in test [3], 29 days in test [10] and 60 days in [5]. Besides, the outcome in test [2] and in test [12] was Active.
On to `N=C(N)c1ccc2nc(-c3ccc(-c4ccc(C(=N)N)c(F)c4)o3)[nH]c2c1`, for which the Survival in test [5] came to 27 days. Moreover, the result in test [12] was inactive.
Take `COc1cc(-c2ccc(C(=N)N)cc2)c(OC)cc1-c1ccc(C(=N)N)cc1`: the Survival in [5] was found to be 7 days. Further, the outcome in test [12] was inactive.
With `CNC(=N)c1ccc(OCCCCCOc2ccc(C(=N)NC)cc2)cc1`, in [1], the Survival amounted to 29 days. Also, in test [2], the result was inactive.
As to `Cc1cc(C(=N)N)ccc1-c1ccc(-c2nc3ccc(C(=N)N)cc3[nH]2)o1`, the Survival in test [5] was determined as 16 days. Moreover, in test [12], the result was inactive.
In the same order, the values of `N=C(N)c1ccc(-c2ccc(-c3ccc4ccc(C(=N)N)cc4c3)o2)cc1` are 15 days and “inactive”.
On to `Cn1c(-c2ccc(C(=N)N)cc2)ccc1-c1ccc(C(=N)N)cc1`, for which the Survival in test [1] is 49 days.
Consider `N=C(N)c1ccc(-c2ccc(-c3ccc(C(=N)N)cc3)o2)cc1` [FURAMIDINE], for which the Survival turned out to be 60 days in test [3], 29 days in [9], 55 days in test [10] and 60 days in [17]. Besides, the result in test [16] and in [13] was Active.
`N=C(N)c1ccc(-c2ccc(-c3ccc(C(=N)N)nc3)o2)cc1`: the Survival in test [1] was 60 days; in test [3], 54 days; in test [10] it was 46 days; in test [5] it was 60 days. Moreover, the outcome in [2] and in [12] was Active.
In the case of `N=C(N)c1ccc(/N=N/Nc2ccc(C(=N)N)cc2)cc1` [DIMINAZENE], the Survival in test [1] is 60 days; in test [14], 9 days; in test [6], 44 days. In addition, the result in [2] was Active. Also, the outcome in test [15] was inactive.
With `N=C(N)c1ccc(-c2cc(-c3ccc(C(=N)N)cc3)on2)cc1`, the Survival in test [1] was found to be 60 days; in [5] it was 29 days. Besides, the outcome in [2] was Active.
